Where two headings read alike, the source gives them in different places.
Key:
Assay type in all cases: in vivo
[1] = test system: Ctenocephalides felis; assay: Ctenocephalides felis in vitro contact test with adult cat fleas; settings: application rate 5 μg/cm^2 (=500 g/ha); after 48 h; fleas dead or moribund
Description: Ctenocephalides felis—In Vitro Contact Tests with Adult Cat Fleas
(§1) For the coating of the test tubes, 9 mg of active compound are first dissolved in 1 ml of acetone p.a. and then diluted to the desired concentration with acetone p.a. 250 μl of the solution are distributed homogeneously on the inner walls and the base of a 25 ml glass tube by turning and rocking on an orbital shaker (rocking rotation at 30 rpm for 2 h). With 900 ppm of active compound solution and internal surface area 44.7 cm^2, given homogeneous distribution, an area-based dose of 5 μg/cm^2 is achieved.
After the solvent has evaporated off, the tubes are populated with 5-10 adult cat fleas (Ctenocephalides felis), sealed with a perforated plastic lid and incubated in a horizontal position at room temperature and ambient humidity. After 48 h, efficacy is determined. To this end, the tubes are stood upright and the fleas are knocked to the base of the tube. Fleas which remain motionless at the base or move in an uncoordinated manner are considered to be dead or moribund.
100% efficacy means that all the fleas were dead or moribund. 0% efficacy means that no fleas were harmed.

[2] = test system: Rhipicephalus sanguineus; assay: Rhipicephalus sanguineus in vitro contact test with adult brown dog ticks; settings: application rate 5 μg/cm^2; after 48 h; ticks dead or moribund
Description: Rhipicephalus sanguineus—In Vitro Contact Tests with Adult Brown Dog Ticks
as §1
After the solvent has evaporated off, the tubes are populated with 5-10 adult dog ticks (Rhipicephalus sanguineus), sealed with a perforated plastic lid and incubated in a horizontal position in the dark at room temperature and ambient humidity. After 48 h, efficacy is determined. To this end, the ticks are knocked to the base of the tube and incubated on a hotplate at 45-50° C. for not more than 5 min. Ticks which remain motionless on the base or move in such an uncoordinated manner that they are unable to deliberately avoid the heat by climbing upwards are considered to be dead or moribund.
An efficacy of 100% means that all the ticks were dead or moribund. 0% efficacy means that none of the ticks were harmed.

[3] = test system: Myzus persicae; assay: Myzus persicae oral test; settings: 120 h, application rate 4 ppm, after 5 days, read-out: efficacy
Description: Solvent: 100 parts by weight of acetone
To produce a suitable preparation of active compound, 1 part by weight of active compound is dissolved using the specified parts by weight of solvent and made up with water until the desired concentration is attained.
50 μl of the active compound preparation are transferred into microtitre plates and made up to a final volume of 200 μl with 150 μl of IPL41 insect medium (33%+15% sugar). Subsequently, the plates are sealed with parafilm, which a mixed population of green peach aphids (Myzus persicae) within a second microtitre plate is able to puncture and imbibe the solution through it.
(§2) After 5 days, the efficacy in % is determined. 100% means that all the aphids have been killed; 0% means that no aphids have been killed.

[4] = test system: Myzus persicae; assay: Myzus persicae spray test; settings: foliar, 120 h, application rate 100 g/ha, Chinese cabbage leaf discs, after 5 days, read-out: efficacy
Description: Myzus persicae—Spray Test
Solvent: • 78 parts by weight of acetone • 1.5 parts by weight of dimethylformamide
(§3) Emulsifier: alkylaryl polyglycol ether
(§4) To produce a suitable active compound preparation, 1 part by weight of active compound is dissolved using the stated parts by weight of solvent and made up with water containing an emulsifier concentration of 1000 ppm until the desired concentration is attained. To produce further test concentrations, the formulation is diluted with emulsifier-containing water.
Discs of Chinese cabbage leaves (Brassica pekinensis) infested by all stages of the green peach aphid (Myzus persicae) are sprayed with an active compound formulation of the desired concentration.
as §2

[5] = test system: Phaedon cochleariae; assay: Phaedon cochleariae spray test; settings: foliar, 168 h, application rate 100 g/ha, Chinese cabbage leaf discs, after 7 days, read-out: efficacy
Description: Phaedon cochleariae—Spray Test
(§5) Solvent: • 78.0 parts by weight of acetone • 1.5 parts by weight of dimethylformamide
as §3, §4
Discs of Chinese cabbage leaves (Brassica pekinensis) are sprayed with an active compound formulation of the desired concentration and, after drying, populated with larvae of the mustard beetle (Phaedon cochleariae).
After 7 days, the efficacy in % is determined. 100% means that all the beetle larvae have been killed; 0% means that no beetle larvae have been killed.

[6] = test system: Spodoptera frugiperda; assay: Spodoptera frugiperda spray test; settings: foliar, 168 h, application rate 100 g/ha, maize leaf discs, after 7 days, read-out: efficacy
Description: Spodoptera frugiperda—Spray Test
as §5, §3
To produce further test concentrations, the formulation is diluted with emulsifier-containing water.
After 7 days, the efficacy in % is determined. 100% means that all the caterpillars have been killed; 0% means that no caterpillar has been killed.

[7] = test system: Myzus persicae; assay: Myzus persicae spray test (MYZUPE), comparative; settings: 120 h, 5 dat, read-out: % Efficacy; for Emax at 4 g/ha: 4 g of ai/ha; for Emax at 20 g/ha: 20 g of ai/ha
Description: Myzus persicae—Spray Test (MYZUPE)
as §5, §3, §4
Discs of Chinese cabbage leaves (Brassica pekinensis) infested by all stages of the green peach aphid (Myzus persicae) are sprayed with an active compound preparation of the desired concentration.
(§6) After the desired period of time, the efficacy in % is determined. 100% means that all the aphids have been killed; 0% means that no aphids have been killed.

[8] = test system: Spodoptera frugiperda; assay: Spodoptera frugiperda spray test (SPODFR), comparative; settings: 168 h, 0.8 g of ai/ha, 7 dat, read-out: % Efficacy
Description: Spodoptera frugiperda—Spray Test (SPODFR)
as §5, §3, §4
Leaf discs of maize (Zea mays) are sprayed with an active compound formulation of the desired concentration and, after drying, populated with caterpillars of the armyworm (Spodoptera frugiperda).
After the desired period of time, the efficacy in % is determined. 100% means that all the caterpillars have been killed; 0% means that no caterpillar has been killed.

[9] = test system: Aphis gossypii; assay: Aphis gossypii spray test (APHIGO S); settings: 144 h, 6 dat, read-out: % Efficacy
Description: Aphis gossypii—Spray Test (APHIGO S)
(§7) Solvent: 14 parts by weight of dimethylformamide
as §3
as §4, with “water. If the addition of ammonium salts or/and penetrants is required, these are each added in a concentration of 1000 ppm to the formulation solution.” for “water.”
Cotton plants (Gossypium hirsutum) heavily infested by the cotton aphid (Aphis gossypii) are sprayed with an active compound formulation of the desired concentration.
After the desired time, the kill in % is determined. 100% means that all the aphids have been killed; 0% means that no aphids have been killed.

[10] = test system: Spodoptera frugiperda; assay: Spodoptera frugiperda test on maize plants (SPODFR S); settings: 6 dai, read-out: % Efficacy
Description: Spodoptera frugiperda Test (SPODFR S)
as §7
(§8) Emulsifier: 2 parts by weight of alkylaryl polyglycol ether
(§9) To produce a suitable active compound formulation, 1 part by weight of active compound is dissolved with the stated parts by weight of solvent and emulsifier and made up to the desired concentration with water. To produce further test concentrations, water is used for dilution. In the event that addition of ammonium salts or/and penetrants (rapeseed oil methyl ester) is required, these are each pipetted in at a concentration of 1000 ppm after the finished formulation solution has been diluted.
Maize plants (Zea mays) are sprayed with an active compound formulation of the desired concentration and, in each case after 5, 12 and 19 days, populated with 5 caterpillars (L2) of the fall armyworm (Spodoptera frugiperda).
(§10) The kill is determined 6 days after the infection. 100% means that all the caterpillars have been killed and 0% means that none of the caterpillars have been killed.

[11] = test system: Ctenocephalides felis; assay: Ctenocephalides felis oral test; settings: 48 h, application rate 100 ppm, in citrated cattle blood, after 2 days, read-out: efficacy (kill in %)
Description: Ctenocephalides felis—Oral Test
(§11) Solvent: Dimethyl sulfoxide
To produce a suitable active compound formulation, 10 mg of active compound are mixed with 0.5 ml of dimethyl sulfoxide. Dilution with citrated cattle blood gives the desired concentration.
About 20 unfed adult cat fleas (Ctenocephalides felis) are placed into a chamber which is closed at the top and bottom with gauze. A metal cylinder whose bottom end is closed with parafilm is placed onto the chamber. The cylinder contains the blood/active compound formulation, which can be imbibed by the fleas through the parafilm membrane.
After 2 days, the kill in % is determined. 100% means that all of the fleas have been killed; 0% means that none of the fleas have been killed.

[12] = test system: Lucilia cuprina; assay: Lucilia cuprina test; settings: application rate 100 ppm; L1 larvae; after 2 days
Description: as §11
To produce a suitable active compound formulation, 10 mg of active compound are mixed with 0.5 ml of dimethyl sulfoxide, and the concentrate is diluted with water to the desired concentration.
About 20 L1 larvae of the Australian sheep blowfly (Lucilia cuprina) are transferred into a test vessel containing minced horsemeat and the active compound formulation of the desired concentration.
After 2 days, the kill in % is determined. 100% means that all the larvae have been killed; 0% means that no larvae have been killed.

[13] = test system: Plutella xylostella; assay: Plutella xylostella test (PLUTMA S); settings: 456 h, infection 19 dat, 6 dai, read-out: % Efficacy
Description: Plutella xylostella Test (PLUTMA S)
as §7, §8, §9
Cabbage plants (Brassica oleracea var. sabauda) are sprayed with an active compound formulation of the desired concentration and, after 19 days, populated with 10 caterpillars (L2 larvae) of the diamond back moth (Plutella xylostella).
as §10

[14] = test system: Myzus persicae; assay: Myzus persicae spray test on bell pepper plants (MYZUPE S); settings: 144 h, 6 dat, read-out: % Efficacy
Description: Myzus persicae—Spray Test (MYZUPE S)
as §7, §3
as §4, with “water. If the addition of ammonium salts or/and penetrants is required, these are each added in a concentration of 1000 ppm to the formulation solution.” for “water.”
Bell pepper plants (Capsicum annuum) severely infested with the green peach aphid (Myzus persicae) are treated by spraying with the active compound formulation in the desired concentration.
After the desired time, the kill in % is determined. 100% means that all the animals have been killed; 0% means that no animals have been killed.

[15] = test system: Myzus persicae; assay: Myzus persicae drench test (MYZUPE D); settings: soil, 240 h, 10 dat, read-out: % Efficacy
Description: Myzus persicae—Drench Test (MYZUPE D)
Solvent: 7 parts by weight of dimethylformamide
Emulsifier: 2 part by weight of alkylaryl polyglycol ether
To produce a suitable active compound preparation, 1 part by weight of active compound is mixed with the specified amounts of solvent and emulsifier, and the concentrate is diluted with water to the desired concentration, it being necessary to include the volume of soil which is drenched in the calculation. It should be ensured that a concentration of 40 ppm of emulsifier in the soil is not exceeded. To produce further test concentrations, water is used for dilution.
Savoy cabbage (Brassica oleracea) in pots with soil and infested by all stages of the green peach aphid (Myzus persicae) is watered with an active compound preparation of the desired concentration.
as §6

[16] = test system: Heliothis armigera; assay: Heliothis armigera test (HELIAR S); settings: Helicoverpa armigera, 6 dai, read-out: % Efficacy
Description: Heliothis armigera Test (HELIAR S)
as §7, §8, §9
Cotton plants (Gossypium hirsutum) are sprayed with an active compound formulation of the desired concentration and, in each case after 12 and 19 days, populated with 5 caterpillars (L2) of the cotton bollworm (Heliothis armigera).
as §10

[17] = test system: Phaedon cochleariae; assay: Phaedon cochleariae test on cabbage plants (PHAECO S); settings: 6 dai, read-out: % Efficacy
Description: Phaedon cochleariae Test (PHAECO S)
as §7, §8, §9
Cabbage plants (Brassica oleracea var. sabauda) are sprayed with an active compound formulation of the desired concentration and populated with 10 L2 larvae of the mustard beetle (Phaedon cochleariae).
After the desired time, the kill in % is determined. 100% means that all the larvae have been killed and 0% means that none of the larvae have been killed.

| SMILES | efficacy [1] | pest or weed control at 4 ppm [3] | pest or weed control at 100 g/ha [4] | pest or weed control at 100 g/ha [6] | Emax at 4 g/ha [7] | Emax at 20 g/ha [7] | Emax at 0.8 g/ha [8] | Emax at 4 ppm [9] | Emax at 0.16 ppm ([10]; 120 h, infection 5 dat) | Emax at 0.16 ppm ([10]; 288 h, infection 12 dat) | Emax at 0.8 ppm ([10]; 288 h, infection 12 dat) | Emax at 0.16 ppm ([10]; 456 h, infection 19 dat) | Emax at 0.8 ppm ([10]; 456 h, infection 19 dat) | Emax at 0.16 ppm [13] | other results |
| --- | --- | --- | --- | --- | --- | --- | --- | --- | --- | --- | --- | --- | --- | --- | --- |
| CCS(=O)(=O)c1c(-c2nc3cc(C(F)(F)F)cnc3n2C)ncc2c(C(F)(F)F)cccc12 [Example I-032] | 100% | 100% | 100% | 100% | 90% | 100% | 100% | 90% | 100% | 70% | 100% | – | – | – | efficacy [2]: 100%; pest or weed control at 100 g/ha [5]: 100% |
| CCS(=O)(=O)c1ccc2c(S(=O)(=O)CC)c(-c3nc4cc(C(F)(F)F)cnc4n3C)ncc2c1 [Example I-034, 4,7-Bis(ethylsulfonyl)-3-[3-methyl-6-(trifluoromethyl)imidazo[4,5-b]pyridin-2-yl]isoquinoline] | 100% | 100% | 90% | 83% | – | – | – | – | – | – | – | – | – | – | pest or weed control at 100 ppm [11]: 100%; efficacy (kill in %) [12]: 100% |
| CCS(=O)(=O)c1c(-c2nc3cc(C(F)(F)F)cnc3n2C)ncc2cc(OCC(F)(F)F)ccc12 [Example I-036] | – | 100% | – | 100% | – | – | – | – | 90% | – | – | 70% | 100% | 80% | – |
| CCS(=O)(=O)c1c(-c2nc3cc(C(F)(F)F)cnc3n2C)ncc2cc(C(F)(F)F)ccc12 [Example I-51, reference compound] | – | – | – | – | 0% | 0% | 67% | 20% | 20% | 10% | 80% | 30% | 60% | 50% | Emax at 0.8 ppm ([14]; 0.8 ppm): 0%; Emax at 4 ppm ([14]; 4 ppm): 70%; Emax at 4 ppm [15]: 0%; Emax at 0.16 ppm ([16]; 288 h, infection 12 dat): 40%; Emax at 0.16 ppm ([16]; 456 h, infection 19 dat): 20%; Emax at 0.16 ppm ([17]; 120 h, infection 5 dat): 10%; Emax at 0.16 ppm ([17]; 288 h, infection 12 dat): 0%; Emax at 0.8 ppm ([17]; 288 h, 0.8 ppm, infection 12 dat): 40% |

From US20230060425A1, “FUSED BICYCLIC HETEROCYCLE DERIVATIVES AS PESTICIDES” (Bayer Aktiengesellschaft, priority 2019, published 2023)
